Reference: ChEMBL document CHEMBL1201862, “PubChem BioAssay data set” (2004)
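Results reflect a 48-hour exposure of cells in 96-well plates to compound at five concentrations. GI50 = concentration required for 50% inhibition of growth.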 The source made the active and inactive calls. Cut-off read from the data, not from the text of the source: active = GI50 up to about 1.1 µM and inactive = higher.

Experiments:
Test in all cases: NCI-60 cell line screen, 48 h
IGROV-1 = system: IGROV-1
786-0 = system: 786-0
T47D = system: T47D
MCF7 = system: MCF7
HOP-92 = system: HOP-92
SR = system: SR
SW-620 = system: SW-620
CCRF-CEM = system: CCRF-CEM
HCT-15 = system: HCT-15
SK-MEL-28 = system: SK-MEL-28
K562 = system: K562
SF-539 = system: SF-539
HL-60 = system: HL-60
SF-268 = system: SF-268
UACC-62 = system: UACC-62
Malme-3M = system: Malme-3M
UO-31 = system: UO-31
EKVX = system: EKVX
BT-549 = system: BT-549
KM12 = system: KM12

| Compound | GI50 (IGROV-1) | GI50 (786-0) | GI50 (T47D) | GI50 (MCF7) | GI50 (HOP-92) | GI50 (SR) | GI50 (SW-620) | GI50 (CCRF-CEM) | GI50 (HCT-15) [µM] | GI50 (SK-MEL-28) | GI50 (K562) | GI50 (SF-539) | GI50 (HL-60) | GI50 (SF-268) | GI50 (UACC-62) | GI50 (Malme-3M) | GI50 (UO-31) | GI50 (EKVX) | GI50 (BT-549) | GI50 (KM12) |
| --- | --- | --- | --- | --- | --- | --- | --- | --- | --- | --- | --- | --- | --- | --- | --- | --- | --- | --- | --- | --- |
| CC(=O)NCCCCN(CCCNC(C)=O)C(=O)CNS(=O)(=O)c1cccc2c(N(C)C)cccc12 | > 100 µM (inactive) | > 100 µM (inactive) | > 100 µM (inactive) | > 100 µM (inactive) | > 100 µM (inactive) | > 100 µM (inactive) | > 100 µM (inactive) | > 100 µM (inactive) | > 100 | > 100 µM (inactive) | > 100 µM (inactive) | > 100 µM (inactive) | > 100 µM (inactive) | > 100 µM (inactive) | > 100 µM (inactive) | > 100 µM (inactive) | > 100 µM (inactive) | > 100 µM (inactive) | > 100 µM (inactive) |  |
| Cc1cc(S(=O)(=O)Nc2nc(N)nc(N3N=CCC3C)n2)c(S)cc1Cl (stereo not drawn) | > 10 µM (inactive) | > 10 µM (inactive) | > 10 µM (inactive) | > 10 µM (inactive) | > 10 µM (inactive) | > 10 µM (inactive) | > 10 µM (inactive) | > 10 µM (inactive) | > 10 | > 10 µM (inactive) | > 10 µM (inactive) | > 10 µM (inactive) | > 10 µM (inactive) | > 10 µM (inactive) |  | > 10 µM (inactive) | > 10 µM (inactive) | > 10 µM (inactive) | > 10 µM (inactive) | > 10 µM (inactive) |
| Cc1cc2c(cc1Cl)SC(c1ccccc1O)NS2(=O)=O (stereo not drawn) | 42.4 µM (inactive) | 34.7 µM (inactive) | 6.95 µM (inactive) | 36.9 µM (inactive) | 54.1 µM (inactive) | 16.4 µM (inactive) | 19.2 µM (inactive) | < 0.01 µM (active) | 19.4 | 49.4 µM (inactive) | 27.7 µM (inactive) | 48.8 µM (inactive) | 59.7 µM (inactive) | 91.4 µM (inactive) | 29.6 µM (inactive) | 24.4 µM (inactive) | 63.2 µM (inactive) | 56.9 µM (inactive) | 47.2 µM (inactive) | 94 µM (inactive) |
| Cc1cc(Br)cc(C)c1NC(=O)C(=O)Nn1c(S)nc2ccccc2c1=O | > 100 µM (inactive) | > 100 µM (inactive) | > 100 µM (inactive) | > 100 µM (inactive) | > 100 µM (inactive) | > 100 µM (inactive) | > 100 µM (inactive) | > 100 µM (inactive) | > 100 | > 100 µM (inactive) | > 100 µM (inactive) | > 100 µM (inactive) | > 100 µM (inactive) | > 100 µM (inactive) | > 100 µM (inactive) | > 100 µM (inactive) | > 100 µM (inactive) | > 100 µM (inactive) | > 100 µM (inactive) | > 100 µM (inactive) |
| O=C1NC2(CCN(CCc3ccccc3)CC2)Oc2ccccc21 | > 100 µM (inactive) | > 100 µM (inactive) | 49.7 µM (inactive) | 46.5 µM (inactive) | 24.7 µM (inactive) | 52.7 µM (inactive) | > 100 µM (inactive) | 49.3 µM (inactive) | 46.3 | 73.6 µM (inactive) | 32.5 µM (inactive) | > 100 µM (inactive) | 40.4 µM (inactive) | > 100 µM (inactive) | 46.6 µM (inactive) | 33.3 µM (inactive) | 49 µM (inactive) | 69.2 µM (inactive) | 39 µM (inactive) | 54.7 µM (inactive) |
| N#CC(C#N)=C(N)/C(C#N)=C/c1ccc2[nH]ccc2c1 | > 100 µM (inactive) | > 100 µM (inactive) | > 100 µM (inactive) | > 100 µM (inactive) | > 100 µM (inactive) | > 100 µM (inactive) | > 100 µM (inactive) | > 100 µM (inactive) | > 100 | > 100 µM (inactive) | > 100 µM (inactive) | > 100 µM (inactive) | > 100 µM (inactive) | > 100 µM (inactive) | > 84.9 µM (inactive) | > 100 µM (inactive) | 14 µM (inactive) | > 100 µM (inactive) | 70.6 µM (inactive) | > 100 µM (inactive) |
